Source: US20250129067A1 (Progentos Therapeutics, Inc., priority 2021, published 2025)
Where two headings read alike, the source gives them in different places.

What was measured:
PDGFRα = PDGFRα (Homo sapiens (Human), UniProt P16234); experiment: PDGFRα kinase enzyme assay (Promega PDGFRα Kinase Enzyme System, ADP-Glo); type: biochemical; conditions: 150 uM ATP
How it was run: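 Read-out was ADP-Glo: remaining ATP depleted, ADP converted to luminescence and compared with a standard curve.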

[1] = test system: GPR17+ cells (newly differentiated oligodendrocytes); experiment: In vivo OPC differentiation, GPR17+ cells in brain; conditions: Mus musculus, po, 24 h, read-out: GPR17 Fold Induction (Over Vehicle)
[2] = test system: Oligodendrocyte progenitor cells (OPCs); experiment: In vitro OPC differentiation assay, MBP expression (immunocytochemistry)
Experimental: Cortices from postnatal day (P) 1-3 rats were dissected and collected into ice cold Hank's Balanced Salt Solution (HBSS). […] Briefly, the cortical cell suspension was centrifuged and washed with buffer (0.5% BSA in PBS) and labeled with Anti-A2B5 MicroBeads (10 μL beads per 1×10^7 cells) for 15 minutes at 4° C. Following the incubation, cells were washed once with BSA buffer to remove unlabeled beads. A2B^5 positive cells were eluted on the column using the AutoMACS® (Miltenyi, as per manufacturer's protocol using “possel-s” program). Eluted cells were further washed twice with OPC growth media. Cell count was performed using Countess III cell counter (ThermoFisher; AMQAX2000) and cells were plated.
A2B5+ OPCs were plated in poly-d-lysine (PDL) coated T75 flask at a density of ˜3 million cells per flask. […] TrypLE was normalized by adding 10 mL growth media and cells were centrifuged at 1400 rpm for 10 minutes. […] The plates were allowed to sit at room temperature for 15 minutes to ensure proper dispersion of cells in a well. The plates were then transferred to the incubator (37° C.; 5% CO2).
Cells were then incubated for 72 hours at 37° C., 5% CO2 before immunostaining for MBP marker expression.
Following 72 hours of treatment, cells were fixed with 4% paraformaldehyde for 15 minutes then washed three times in DPBS. Prior to staining, cells were blocked for 15 minutes in 10% normal goat serum containing 1% BSA and 0.1% Triton X-100 in DPBS. Primary antibody (MBP @ 1:2000; Abcam AB7349) was applied to cells overnight at 4° C. in incubation solution containing 1% normal goat serum, 1% BSA, and 0.1% Triton X-100 in DPBS.
The number of differentiated MBP+ cells was normalized to the total nuclei count and percent differentiated MBP+ cells were reported.

[3] = test system: Oligodendrocyte progenitor cells (OPCs); experiment: In vitro OPC differentiation assay, GPR17 expression (immunocytochemistry); conditions: 72 hours; for GPR17 Fold Induction (Over Vehicle; 3 μM): 3 μM (10× concentration, final 0.3 μM)
[4] = 11-point dose response, 10,000 nM to 0.169 nM, BLQ = below limit of quantitation, read-out: IC50 Values on PDGFRα Kinase Inhibition, IC50
[5] = 72 hours of treatment, fold change over vehicle
[6] = 5 μM (10× concentration, final 0.5 μM), fold change over vehicle
[7] = 20 ng purified PDGFRα, Poly (Glu4Tyr1) substrate, two hours, 11-point dose response, read-out: IC50 Values on PDGFRα Kinase Inhibition

PDGFRα, sequence (P16234 24-1089): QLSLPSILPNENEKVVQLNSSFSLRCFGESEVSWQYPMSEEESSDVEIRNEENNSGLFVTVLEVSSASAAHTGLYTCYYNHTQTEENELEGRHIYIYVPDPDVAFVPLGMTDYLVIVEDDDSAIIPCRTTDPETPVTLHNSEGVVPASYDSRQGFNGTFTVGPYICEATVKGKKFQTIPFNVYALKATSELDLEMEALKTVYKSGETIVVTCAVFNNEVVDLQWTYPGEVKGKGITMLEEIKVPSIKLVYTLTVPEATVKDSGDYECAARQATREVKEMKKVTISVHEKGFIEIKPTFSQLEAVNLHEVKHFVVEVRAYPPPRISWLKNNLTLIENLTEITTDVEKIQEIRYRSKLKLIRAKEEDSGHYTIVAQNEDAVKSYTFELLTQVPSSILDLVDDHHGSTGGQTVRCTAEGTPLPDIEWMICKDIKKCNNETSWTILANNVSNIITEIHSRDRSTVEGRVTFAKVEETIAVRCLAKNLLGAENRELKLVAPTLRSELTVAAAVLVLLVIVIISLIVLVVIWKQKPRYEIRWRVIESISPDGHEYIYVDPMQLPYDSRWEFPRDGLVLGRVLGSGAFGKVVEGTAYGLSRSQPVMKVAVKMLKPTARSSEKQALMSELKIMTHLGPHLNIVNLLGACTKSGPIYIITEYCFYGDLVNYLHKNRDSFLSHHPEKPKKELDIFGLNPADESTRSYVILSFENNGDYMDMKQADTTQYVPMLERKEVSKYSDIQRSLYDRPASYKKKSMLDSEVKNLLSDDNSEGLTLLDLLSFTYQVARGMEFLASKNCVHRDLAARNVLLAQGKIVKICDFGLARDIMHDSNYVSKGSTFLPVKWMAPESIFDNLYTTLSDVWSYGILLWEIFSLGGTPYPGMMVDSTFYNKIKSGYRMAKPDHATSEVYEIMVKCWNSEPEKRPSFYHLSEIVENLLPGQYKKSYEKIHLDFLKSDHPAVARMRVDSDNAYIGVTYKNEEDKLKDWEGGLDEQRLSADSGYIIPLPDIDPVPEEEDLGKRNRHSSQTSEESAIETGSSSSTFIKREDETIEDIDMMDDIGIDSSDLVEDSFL

Compound | IC50 (PDGFRα; [4]) [nM] | MBP Fold Induction (Over vehicle) [2, 5] | GPR17 Fold Induction (Over Vehicle; 3 μM) ([3]; fold change over vehicle) | GPR17 Fold Induction (Over Vehicle; 5 μM) [3, 6] | IC50 (PDGFRα; [7]) [nM] | MBP Fold Induction (Over vehicle) ([2]; primary rat OPCs, 72 hours, 3 uM (10x; final 0.3 uM per method), percent MBP+ cells as fold change over vehicle) | GPR17 Fold Induction (Over Vehicle; 5 μM) ([3]; primary rat OPCs, 5 μM (10x; final 0.5 μM per method), percent GPR17+ cells as fold change over vehicle) | fold induction at 10 mg/kg [1] | fold induction at 3 mg/kg [1]
Cn1cc(-c2ccc3c(N4CCN(c5ncc(Cc6cccnc6)cn5)CC4)cnn3c2)cn1 [Compound 251, 6-(1-methyl-1H-pyrazol-4-yl)-3-{4-[5-(pyridin-3-ylmethyl)pyrimidin-2-yl]piperazin-1-yl}pyrazolo[1,5-a]pyridine] | 1160 | 9.20 | 4.97 | – | – | – | – | – | 1.22
Cn1cc(-c2ccc3c(N4CCN(C(=O)OCCC5CCOCC5)CC4)cnn3c2)cn1 [Compound 15, 2-(tetrahydro-2H-pyran-4-yl)ethyl 4-[6-(1-methyl-1H-pyrazol-4-yl)pyrazolo[1,5-a]pyridin-3-yl]piperazine-1-carboxylate] | 1410 | 1.97 | 6.37 | 3.98 | – | – | – | – | –
Cn1cc(-c2ccc3c(N4CCN(c5ncc(Cc6ccccc6)cn5)CC4)cnn3n2)cn1 [Compound 8, 3-[4-(5-benzylpyrimidin-2-yl)piperazin-1-yl]-6-(1-methyl-1H-pyrazol-4-yl)pyrazolo[1,5-b]pyridazine] | 1680 | 2.33 | 10.86 | 3.18 | – | – | – | – | –
CC(C)C(O)c1cnc(N2CCN(c3cnn4cc(-c5cnn(C)c5)ccc34)CC2)nc1 (stereo not drawn) [Compound 176, 2-methyl-1-(2-{4-[6-(1-methyl-1H-pyrazol-4-yl)pyrazolo[1,5-a]pyridin-3-yl]piperazin-1-yl}pyrimidin-5-yl)propan-1-ol] | 2080 | 1.48 | 3.90 | – | – | – | – | – | –
CN(C[C@@H]1COCCO1)S(=O)(=O)Nc1ccc2ccc3ncc(-c4cnn(C)c4)cc3c(=O)c2c1 [MK 2461, reference compound] | – | – | – | – | 10.8 | 6.11 | 7.10 | – | –
C[C@H](OC(=O)N1CCN(c2cnn3cc(-c4cnn(C)c4)ccc23)CC1)c1ccccc1 [Compound 34, (S)-1-phenylethyl 4-(6-(1-methyl-1H-pyrazol-4-yl)pyrazolo[1,5-a]pyridin-3-yl)piperazine-1-carboxylate] | 786 | 2.00 | 5.16 | 5.12 | – | – | – | – | –
C=C(c1ccc(F)cc1)c1cnc(N2CCN(c3cnn4cc(-c5cnn(C)c5)ccc34)CC2)nc1 [Compound 256, 3-(4-(5-(1-(4-fluorophenyl)vinyl)pyrimidin-2-yl)piperazin-1-yl)-6-(1-methyl-1H-pyrazol-4-yl)pyrazolo[1,5-a]pyridine] | 3200 | 8.70 | 4.15 | – | – | – | – | – | –
Cn1cc(-c2ccc3c(N4CCN(c5ccc(Cc6ccccc6)cc5)CC4)cnn3c2)cn1 [Compound 150, 3-(4-(4-benzylphenyl)piperazin-1-yl)-6-(1-methyl-1H-pyrazol-4-yl)pyrazolo[1,5-a]pyridine] | 1140 | 2.93 | 4.10 | – | – | – | – | – | –
Cn1cc(-c2ccc3c(NC4CN(c5ncc(Cc6ccccc6)cn5)C4)cnn3c2)cn1 [Compound 131, N-(1-(5-benzylpyrimidin-2-yl)azetidin-3-yl)-6-(1-methyl-1H-pyrazol-4-yl)pyrazolo[1,5-a]pyridin-3-amine] | 3880 | 2.49 | 6.36 | – | – | – | – | – | –
Cn1cc(-c2ccc3c(N4CCN(c5ncccn5)CC4)cnn3c2)cn1 [Compound 10, 6-(1-methyl-1H-pyrazol-4-yl)-3-(4-pyrimidin-2-ylpiperazin-1-yl)pyrazolo[1,5-a]pyridine] | 6190 | 1.41 | 5.65 | 3.81 | – | – | – | – | –
3-[4-(5-benzylpyrimidin-2-yl)piperazin-1-yl]-7-(1-methyl-1H-pyrazol-4-yl)imidazo[1,2-b]pyridazine [Compound 52] | 1950 | 2.66 | 9.09 | 5.41 | – | – | – | – | –

Second part, led by results:

IC50 (PDGFRα; [4]) [nM] | MBP Fold Induction (Over vehicle) [2, 5] | GPR17 Fold Induction (Over Vehicle; 3 μM) ([3]; fold change over vehicle) | GPR17 Fold Induction (Over Vehicle; 5 μM) [3, 6] | IC50 (PDGFRα; [7]) [nM] | MBP Fold Induction (Over vehicle) ([2]; primary rat OPCs, 72 hours, 3 uM (10x; final 0.3 uM per method), percent MBP+ cells as fold change over vehicle) | GPR17 Fold Induction (Over Vehicle; 5 μM) ([3]; primary rat OPCs, 5 μM (10x; final 0.5 μM per method), percent GPR17+ cells as fold change over vehicle) | Compound | fold induction at 10 mg/kg [1] | fold induction at 3 mg/kg [1]
692 | 46.15 | 9.27 | – | – | – | – | CC(C)(C)OC(=O)N1CCN(c2cnn3cc(-c4cnn(CCCN5CCOCC5)c4)ccc23)CC1 [Compound 233, tert-butyl 4-(6-(1-(3-morpholinopropyl)-1H-pyrazol-4-yl)pyrazolo[1,5-a]pyridin-3-yl)piperazine-1-carboxylate] | 2.16 | –
138 | 13.54 | 5.70 | – | – | – | – | C[C@@H](OC(=O)N1CCN(c2cnn3cc(-c4cnn(C)c4)ccc23)CC1)c1cccc2ccccc12 [Compound 269, (1R)-1-(1-naphthyl)ethyl 4-[6-(1-methyl-1H-pyrazol-4-yl)pyrazolo[1,5-a]pyridin-3-yl]piperazine-1-carboxylate] | – | 0.91
311 | 11.56 | 7.16 | – | – | – | – | CC(C)n1cc(-c2ccc3c(N4CCN(C(=O)OC(C)(C)C)CC4)cnn3c2)cn1 [Compound 234, tert-butyl 4-(6-(1-isopropyl-1H-pyrazol-4-yl)pyrazolo[1,5-a]pyridin-3-yl)piperazine-1-carboxylate] | – | 1.15
673 | 2.95 | 5.81 | 7.65 | – | – | – | Cn1cc(-c2ccc3c(N4CCCN(c5ncc(Cc6ccccc6)cn5)CC4)cnn3c2)cn1 [Compound 37, 3-[4-(5-benzylpyrimidin-2-yl)-1,4-diazepan-1-yl]-6-(1-methyl-1H-pyrazol-4-yl)pyrazolo[1,5-a]pyridine] | – | –
26.8 | 5.22 | 6.72 | – | – | – | – | CC(=O)OC(c1ccc(F)cc1)c1cnc(N2CCN(c3cnn4cc(-c5cnn(C)c5)ccc34)CC2)nc1 (stereo not drawn) [Compound 264, (4-fluorophenyl)(2-(4-(6-(1-methyl-1H-pyrazol-4-yl)pyrazolo[1,5-a]pyridin-3-yl)piperazin-1-yl)pyrimidin-5-yl)methyl acetate] | – | –
670 | 1.71 | 5.18 | – | – | – | – | Cn1cc(-c2ccc3c(N4CCN(c5ncc(Cc6ccc(Cl)cc6)cn5)CC4)cnn3c2)cn1 [Compound 65, 3-{4-[5-(4-chlorobenzyl)pyrimidin-2-yl]piperazin-1-yl}-6-(1-methyl-1H-pyrazol-4-yl)pyrazolo[1,5-a]pyridine] | – | –
517 | 12.61 | 5.98 | – | – | – | – | COC(c1ccc(F)cc1)c1cnc(N2CCN(c3cnn4cc(-c5cnn(C)c5)ccc34)CC2)nc1 (stereo not drawn) [Compound 263, 3-(4-(5-((4-fluorophenyl)(methoxy)methyl)pyrimidin-2-yl)piperazin-1-yl)-6-(1-methyl-1H-pyrazol-4-yl)pyrazolo[1,5-a]pyridine] | – | –
283 | 5.15 | 6.82 | 2.39 | < 1000 | – | – | CCC(CC)OC(=O)N1CCN(c2cnn3cc(-c4cnn(C)c4)ccc23)CC1 [Compound 16, 1-ethylpropyl 4-[6-(1-methyl-1H-pyrazol-4-yl)pyrazolo[1,5-a]pyridin-3-yl]piperazine-1-carboxylate] | – | –
638 | 1.75 | 4.28 | 3.74 | – | – | – | Cn1cc(-c2cn3ncc(N4CCN(C(=O)OC(C)(C)C)CC4)c3cn2)cn1 [Compound 44, Tert-butyl 4-[6-(1-methyl-1H-pyrazol-4-yl)pyrazolo[1,5-a]pyrazin-3-yl)piperazine-1-carboxylate] | – | –
563 | 5.83 | 7.19 | – | – | – | – | Cn1cc(-c2cnc3c(N4CCN(c5ncc(C(O)c6ccc(F)cc6)cn5)CC4)cnn3c2)cn1 (stereo not drawn) [Compound 74, (4-Fluorophenyl)(2-{4-[6-(1-methyl-1H-pyrazol-4-yl)pyrazolo[1,5-a]pyrimidin-3-yl]piperazin-1-yl}pyrimidin-5-yl)methanol] | – | –
7.17 | 2.44 | 13.76 | 7.14 | – | – | – | C[C@@H](OC(=O)N1CCN(c2cnn3cc(-c4cnn(C)c4)ccc23)CC1)c1ccccc1 [Compound 33, (R)-1-phenylethyl 4-(6-(1-methyl-1H-pyrazol-4-yl)pyrazolo[1,5-a]pyridin-3-yl)piperazine-1-carboxylate] | – | –
423 | 2.41 | 5.14 | 2.52 | – | – | – | Cn1cc(-c2ccc3c(C4=CCN(c5ncc(Cc6ccccc6)cn5)C4)cnn3c2)cn1 [Compound 51, 3-[1-(5-benzylpyrimidin-2-yl)-2,5-dihydro-1H-pyrrol-3-yl]-6-(1-methyl-1H-pyrazol-4-yl)pyrazolo[1,5-a]pyridine] | – | –
